Laboratory results as given in PubChem BioAssay AID1963983 (Molecular Pharmacology Branch, DTP, NCI, 2024).
pIC50: −log10 of the molar value. Values joined by “and” are separate entries in the source; they are usually repeats but may differ in a detail not shown here. Equal entries are not always repeated. Each block holds one molecule with its values, some of them ahead of it.

System: 186277-243-T-J2-PDC multi-cell spheroid viability
Assay: Anticancer human tumor 186277-243-T-J2-PDC patient-derived colon adenocarcinoma cell line growth inhibition [PI3K]
Details: for viability, T/C: stronger effect = lower value
Procedure, shortened: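 High-throughput combination screen: PI3K inhibitors crossed with targeted small molecules on complex spheroids of tumor cells, HUVEC and MSCs at 37 degrees C, 5% CO2. Top concentration was at or near clinical Cmax (otherwise 10 microM), with half-log decrements.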

[1] = curve of first compound, second compound 0.0316 µM
[2] = curve of first compound, second compound 0.1 µM
[3] = curve of first compound, second compound 0.316 µM
[4] = curve of first compound, second compound 1 µM
[5] = curve of first compound, second compound 3.16 µM
[6] = curve of first compound, second compound 10 µM
[7] = second compound 0.0316 µM, first compound 0.0316 µM
[8] = second compound 0.0316 µM, first compound 0.1 µM
[9] = second compound 0.1 µM, first compound 0.0316 µM
[10] = second compound 0.1 µM, first compound 0.1 µM
[11] = second compound 0.316 µM, first compound 0.0316 µM
[12] = second compound 0.316 µM, first compound 0.1 µM
[13] = second compound 1 µM, first compound 0.0316 µM
[14] = second compound 1 µM, first compound 0.1 µM
[15] = second compound 3.16 µM, first compound 0.0316 µM
[16] = second compound 3.16 µM, first compound 0.1 µM
[17] = second compound 10 µM, first compound 0.0316 µM
[18] = second compound 10 µM, first compound 0.1 µM
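Also: spheroids exposed to compounds for seven days before viability reading.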
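For viability, T/C in this document: 100% = DMSO vehicle control viability.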

- pIC50 [1]: < 7.00
- pIC50 [2]: < 7.00
- pIC50 [3]: < 7.00
- pIC50 [4]: < 7.00
- pIC50 [5]: < 7.00
- pIC50 [6]: < 7.00
Structure (SMILES): CC(=O)c1c(C)c2cnc(Nc3ccc(N4CCNCC4)cn3)nc2n(C2CCCC2)c1=O + CC(Nc1ncnc2nc[nH]c12)c1cc2cccc(Cl)c2c(=O)n1-c1ccccc1
- viability, T/C (second compound 0.0316 µM, first compound 0.000316 µM): 87.2%
- viability, T/C (second compound 0.0316 µM, first compound 0.001 µM): 96.8%
- viability, T/C (second compound 0.0316 µM, first compound 0.00316 µM): 114%
- viability, T/C (second compound 0.0316 µM, first compound 0.01 µM): 97.2%
- viability, T/C [7]: 109%
- viability, T/C [8]: 113%
- viability, T/C (second compound 0.1 µM, first compound 0.000316 µM): 87.2%
- viability, T/C (second compound 0.1 µM, first compound 0.001 µM): 91.5%
- viability, T/C (second compound 0.1 µM, first compound 0.00316 µM): 99%
- viability, T/C (second compound 0.1 µM, first compound 0.01 µM): 96%
- viability, T/C [9]: 116%
- viability, T/C [10]: 133%
- viability, T/C (second compound 0.316 µM, first compound 0.000316 µM): 96.9%
- viability, T/C (second compound 0.316 µM, first compound 0.001 µM): 97.2%
- viability, T/C (second compound 0.316 µM, first compound 0.00316 µM): 97.7%
- viability, T/C (second compound 0.316 µM, first compound 0.01 µM): 107%
- viability, T/C [11]: 118%
- viability, T/C [12]: 127%
- viability, T/C (second compound 1 µM, first compound 0.000316 µM): 96.3%
- viability, T/C (second compound 1 µM, first compound 0.001 µM): 96.8%
- viability, T/C (second compound 1 µM, first compound 0.00316 µM): 107%
- viability, T/C (second compound 1 µM, first compound 0.01 µM): 107%
- viability, T/C [13]: 122%
- viability, T/C [14]: 118%
- viability, T/C (second compound 3.16 µM, first compound 0.000316 µM): 98.2%
- viability, T/C (second compound 3.16 µM, first compound 0.001 µM): 104%
- viability, T/C (second compound 3.16 µM, first compound 0.00316 µM): 89.1%
- viability, T/C (second compound 3.16 µM, first compound 0.01 µM): 110%
- viability, T/C [15]: 99.5%
- viability, T/C [16]: 119%
- viability, T/C (second compound 10 µM, first compound 0.000316 µM): 84%
- viability, T/C (second compound 10 µM, first compound 0.001 µM): 93.1%
- viability, T/C (second compound 10 µM, first compound 0.00316 µM): 89.7%
- viability, T/C (second compound 10 µM, first compound 0.01 µM): 79.3%
- viability, T/C [17]: 100%
- viability, T/C [18]: 97.9%

- pIC50 (curve of compound): < 6.00
Structure (SMILES): CCN1CCN(Cc2ccc(Nc3ncc(F)c(-c4cc(F)c5nc(C)n(C(C)C)c5c4)n3)nc2)CC1
- viability, T/C (compound 0.00316 µM): 102% [middle of 4 runs]
- viability, T/C (compound 0.01 µM): 101% [middle of 4 runs]
- viability, T/C (compound 0.0316 µM): 106% [middle of 4 runs]
- viability, T/C (compound 0.1 µM): 130% [middle of 4 runs]
- viability, T/C (compound 0.316 µM): 146% and 156% and 145% (2×)
- viability, T/C (compound 1 µM): 146% [middle of 4 runs]

- pIC50 [1]: < 5.00
- pIC50 [2]: < 5.00
- pIC50 [3]: < 5.00
- pIC50 [4]: < 5.00
- pIC50 [5]: < 5.00
- pIC50 [6]: > 7.50
Structure (SMILES): CC(Cn1ccc(-c2ccc(C#N)c(Cl)c2)n1)NC(=O)c1cc(C(C)O)[nH]n1 (stereo unspecified) + Cc1nc(NC(=O)N2CCCC2C(N)=O)sc1-c1ccnc(C(C)(C)C(F)(F)F)c1
- viability, T/C [7]: 99.2%
- viability, T/C [8]: 96.7%
- viability, T/C (second compound 0.0316 µM, first compound 0.316 µM): 98.5%
- viability, T/C (second compound 0.0316 µM, first compound 1 µM): 93%
- viability, T/C (second compound 0.0316 µM, first compound 3.16 µM): 116%
- viability, T/C (second compound 0.0316 µM, first compound 10 µM): 107%
- viability, T/C [9]: 112%
- viability, T/C [10]: 103%
- viability, T/C (second compound 0.1 µM, first compound 0.316 µM): 88.6%
- viability, T/C (second compound 0.1 µM, first compound 1 µM): 109%
- viability, T/C (second compound 0.1 µM, first compound 3.16 µM): 107%
- viability, T/C (second compound 0.1 µM, first compound 10 µM): 122%
- viability, T/C [11]: 99.7%
- viability, T/C [12]: 97.6%
- viability, T/C (second compound 0.316 µM, first compound 0.316 µM): 103%
- viability, T/C (second compound 0.316 µM, first compound 1 µM): 116%
- viability, T/C (second compound 0.316 µM, first compound 3.16 µM): 105%
- viability, T/C (second compound 0.316 µM, first compound 10 µM): 97.5%
- viability, T/C [13]: 103%
- viability, T/C [14]: 92.8%
- viability, T/C (second compound 1 µM, first compound 0.316 µM): 86%
- viability, T/C (second compound 1 µM, first compound 1 µM): 97.9%
- viability, T/C (second compound 1 µM, first compound 3.16 µM): 86.8%
- viability, T/C (second compound 1 µM, first compound 10 µM): 88.3%
- viability, T/C [15]: 56.5%
- viability, T/C [16]: 60.2%
- viability, T/C (second compound 3.16 µM, first compound 0.316 µM): 54.2%
- viability, T/C (second compound 3.16 µM, first compound 1 µM): 58.9%
- viability, T/C (second compound 3.16 µM, first compound 3.16 µM): 50.7%
- viability, T/C (second compound 3.16 µM, first compound 10 µM): 54.8%
- viability, T/C [17]: 21.6%
- viability, T/C [18]: 14.2%
- viability, T/C (second compound 10 µM, first compound 0.316 µM): 18.5%
- viability, T/C (second compound 10 µM, first compound 1 µM): 17.1%
- viability, T/C (second compound 10 µM, first compound 3.16 µM): 15.8%
- viability, T/C (second compound 10 µM, first compound 10 µM): 12.7%
